In patent US6429212B1, “Medicinal composition” (Ishihara Sangyo Kaisha Ltd., priority 1996, dated 2002):
Blank lines part the entries; values can stand above or below the compound they belong to.

What was measured:
[1] = tested on: TNF-α production or secretion by human leukemia cells HL-60 (TPA stimulation); experiment: Influence on TNF-α production or secretion by HL-60 cells stimulated by TPA (ELISA of supernatant); format: cell-based; conditions: for amount of TNF-α, TPA alone = 100%: HL-60, TPA stimulation (Table 11); for amount of TNF-α in the supernatant, TPA alone = 100%: HL-60, TPA 10 nM, 16 hours (Table 9)
Method: (§1) Human leukemia cells HL-60 produce tumor necrosis factor (TNF-α) by stimulation of Okadaic acid (9,10-Deepithio-9,10-didehydroacanthifolicin) or 12O-tetradecanoyl phorbol-13-acetate (TPA). Influences of the compounds of the present invention to production or secretion of TNF-α by them were observed.
The same operation was carried out as in Test Example 1, except that TPA (produced by Sigma) having a final concentration of 10 nM was used, instead of Okadaic acid having a final concentration of 50 nM.
The values in the Table are values obtained by supposing the amount of TNF-α in the supernatant of the culture medium when treated only with TPA having a final concentration of 10 nM, 100%.
Human leukemia cells (HL-60) produce tumor necrosis factor (TNF-α) by stimulation of 12O-tetradecanoyl phorbol-13-acetate (TPA). The influences of the compounds of the present invention to production of TNF-αby it were observed.
(§2) Human leukemia cells (HL-60) were cultured by using a RPMI 1640 culture medium (including 5% fetal bovine serum), in a carbonic acid gas incubator (5% CO2, humidified, 37° C.). Then, the cells were pre-cultured in a RPMI 1640 culture medium (including 10% fetal bovine serum). TPA was added thereto, so that the final concentration was 10 nM based on the HL-60 cells (5×10^5 cells/ml) in an exponentially growing stage. Then, the compound of the present invention was added thereto so that the predetermined concentration could be obtained, to prepare a cell suspension, which was then cultured in a carbonic gas incubator (5% CO2, humidified, 37° C.). In this culture, a multiplate having 24 holes (produced by Corning) was used, and the cell suspension was injected in an amount of 0.5 ml per hole, to culture the cells.
16 hours after the culture started, the cells were removed by centrifugation(1000-2000 rpm×10 min), and the amount of TNF-α in the supernatant was measured in accordance with the method of Amersham, by using human TNF-α ELISA system (produced by Amersham).
The values are obtained by supposing the amount of TNF-α when treated only with TPA having a final concentration of 10 nM, 100%.
The influences of the compounds of the present invention to production or secretion of TNF-α by TPA stimulation were observed, in the same manner as in Test Example 2.

[2] = tested on: TNF-α production or secretion by human leukemia cells HL-60 (Okadaic acid stimulation); experiment: Influence on TNF-α production or secretion by HL-60 cells stimulated by Okadaic acid (ELISA of supernatant); format: cell-based; conditions: for amount of TNF-α in the supernatant, Okadaic acid alone = 100%: HL-60, Okadaic acid 50 nM, 16 hours (Table 8); for amount of TNF-α, Okadaic acid alone = 100%: HL-60, Okadaic acid stimulation (Table 10)
Method: as §1
as §2, with “bovine serum). Okadaic acid was added” for “bovine serum). TPA was added”, “concentration was 50 nM based” for “concentration was 10 nM based”, “a carbonic acid gas incubator” for “a carbonic gas incubator”
16 hours after the culture started, the cells were removed by centrifugation (1000-2000 rpm×10 min), and the amount of TNF-α in the supernatant was measured in accordance with the method of Amersham, by using human TNF-α ELISA system (produced by Amersham).
The values in the Table are values obtained by supposing the amount of TNF-αin the supernatant of the culture medium when treated only with Okadaic acid having a final concentration of 50 nM, 100%.
Influences of the compounds of the present invention to production or secretion of TNF-α by Okadaic acid stimulation were observed, in the same manner as in Test Example 1.

[3] = tested on: angiogenesis under skin of mice; experiment: Angiogenesis under skin of mice (b-FGF matrigel, amount of hemoglobin); format: in vivo, BALB/c male mice; set-up: key to Amount of hemoglobin, value in parentheses (Control = 100): % of control (control = 100), hemoglobin per matrigel; conditions: for Amount of hemoglobin, value in parentheses (Control = 100): experiment (b) (Table 15)
Method: By subcutaneously injecting a mixture having recombinant human fibroblast growth factor-basic added to matrigel, to the back of a mice, angiogenesis occurs under skin of the mice. By measuring the amount of hemoglobin in matrigel, angiogenesis can be quantified. Influences of the compounds of the present invention to angiogenesis were observed.
Matrigel (trademark; basement membrane matrix, phenol is not included, purchased from Becton Dickinson Labware) was added to Dulbecco's modified Eagle's medium (purchased from Sigma), so that the concentration was 9 mg/ml. Recombinant Human Fibroblast Growth Factor-basic (b-FGF, produced by Intergen) was added thereto, so that the concentration was 2 μg/700 μl. The mixture was subcutaneously injected to 6-week BALB/c male mice (Charles River Japan Inc.) in an amount of 700 μl per mouse. Everyday after matrigel injection, a suspension having the compound of the present invention added to 0.8% Tween 80 (purchased from Nacalai Tesque), so that the predetermined concentration could be obtained, was intraperitoneally injected to the mice. 8 days after matrigel injection, matrigel was taken out from the mice, which was then placed in 200 μl of 1% NH4OH at room temperature for 4 hours, to extract hemoglobin. The extraction and matrigel together were subjected to centrifugal separation (10000 rpm, 5 min). 100 μl of the obtained supernatant and 500 μl of Drabkin's reagent (purchased from Sigma) were mixed and left at room temperature. After left more than 15 minutes, absorbance of the supernatant at a wavelength of 540 nm was measured by using a spectrophotometer SPECTRA max 250 (produced by Molecular Devices). The amount of hemoglobin in the supernatant was obtained from the standard curve prepared by using hemoglobin standard (purchased from Sigma), and the amount of hemoglobin per matrigel obtained from a mouse was calculated.
The amount of the hemoglobin in each treatment fraction was corrected by the amount of hemoglobin wherein matrigel having no b-FGF added was injected to the mice, and 0.8% Tween 80 as a solvent alone was injected everyday.
Influences of the compounds of the present invention to angiogenesis under skin of mice were observed, in the same manner as in Test Example 8.

[4] = 5 mg/kg, experiment (b), Control 83.3 (Table 15)

Compound: C[C@H](c1ccccc1)N1C(=O)c2cccc([N+](=O)[O-])c2C1=O [Compound 84, (R)-2-(1-phenylethyl)-4-nitro-1H-isoindole-1,3-dione]
- amount of TNF-α in the supernatant, TPA alone = 100% ([1]; compound 10 nM): 100%
- amount of TNF-α in the supernatant, TPA alone = 100% ([1]; compound 100 nM): 121%
- amount of TNF-α in the supernatant, TPA alone = 100% ([1]; compound 0.3 μM): 195%
- amount of TNF-α in the supernatant, Okadaic acid alone = 100% ([2]; compound 1 nM): 99%
- amount of TNF-α in the supernatant, Okadaic acid alone = 100% ([2]; compound 10 nM): 104%
- amount of TNF-α in the supernatant, Okadaic acid alone = 100% ([2]; compound 100 nM): 88%
- amount of TNF-α in the supernatant, Okadaic acid alone = 100% ([2]; compound 0.3 μM): 52%
- melting point: 115 to 117 °C

Compound: C[C@H](c1ccccc1)N1C(=O)c2c(F)c(F)c(F)c(F)c2C1=O [Compound 18, (R)-2-(1-phenylethyl)-4,5,6,7-tetrafluoro-1H-isoindole-1,3-dione]
- amount of TNF-α in the supernatant, TPA alone = 100% ([1]; compound 10 nM): 100%
- amount of TNF-α in the supernatant, TPA alone = 100% ([1]; compound 100 nM): 101%
- amount of TNF-α in the supernatant, TPA alone = 100% ([1]; compound 0.3 μM): 97%
- amount of TNF-α in the supernatant, Okadaic acid alone = 100% ([2]; compound 1 nM): 97%
- amount of TNF-α in the supernatant, Okadaic acid alone = 100% ([2]; compound 10 nM): 55%
- amount of TNF-α in the supernatant, Okadaic acid alone = 100% ([2]; compound 100 nM): 8%
- amount of TNF-α in the supernatant, Okadaic acid alone = 100% ([2]; compound 0.3 μM): 2%
- Amount of hemoglobin, value in parentheses (Control = 100) ([3]; 5 mg/kg): 78
- Amount of hemoglobin [3, 4]: 65.1 μg/gel

Compound: CC(C)c1cccc(C(C)C)c1N1C(=O)c2ccccc2C1=S [Compound 174, N-(2,6-diisopropylphenyl)thiophthalimide]
- amount of TNF-α, TPA alone = 100% ([1]; compound 1 μM): 332%
- amount of TNF-α, TPA alone = 100% ([1]; compound 10 μM): 682%
- amount of TNF-α, TPA alone = 100% ([1]; compound 100 μM): 1326%
- amount of TNF-α, Okadaic acid alone = 100% ([2]; compound 1 μM): 96%
- amount of TNF-α, Okadaic acid alone = 100% ([2]; compound 10 μM): 15%
- amount of TNF-α, Okadaic acid alone = 100% ([2]; compound 100 μM): 0%
- Amount of hemoglobin, value in parentheses (dose 0 = 100) ([3]; 100 mg/kg intraperitoneally everyday, 8 days after matrigel injection (Table 12)): 54
- Amount of hemoglobin ([3]; 100 mg/kg intraperitoneally everyday, 8 days after matrigel injection, dose 0 = 307.3 (Table 12)): 164.8 μg/gel

Compound: C[C@@H](c1ccccc1)N1C(=O)c2cccc([N+](=O)[O-])c2C1=O [Compound 83, (S)-2-(1-phenylethyl)-4-nitro-1H-isoindole-1,3-dione]
- amount of TNF-α in the supernatant, TPA alone = 100% ([1]; compound 10 nM): 122%
- amount of TNF-α in the supernatant, TPA alone = 100% ([1]; compound 100 nM): 187%
- amount of TNF-α in the supernatant, TPA alone = 100% ([1]; compound 0.3 μM): 239%
- amount of TNF-α in the supernatant, Okadaic acid alone = 100% ([2]; compound 1 nM): 100%
- amount of TNF-α in the supernatant, Okadaic acid alone = 100% ([2]; compound 10 nM): 99%
- amount of TNF-α in the supernatant, Okadaic acid alone = 100% ([2]; compound 100 nM): 85%
- amount of TNF-α in the supernatant, Okadaic acid alone = 100% ([2]; compound 0.3 μM): 61%
- melting point: 115 to 117 °C

Compound: C[C@H](C1CCCCC1)N1C(=O)c2c(F)c(F)c(F)c(F)c2C1=O [Compound 69, (R)-2-(1-cyclohexylethyl)-4,5,6,7-tetrafluoro-1H-isoindole-1,3-dione]
- amount of TNF-α in the supernatant, TPA alone = 100% ([1]; compound 10 nM): 100%
- amount of TNF-α in the supernatant, TPA alone = 100% ([1]; compound 100 nM): 102%
- amount of TNF-α in the supernatant, TPA alone = 100% ([1]; compound 0.3 μM): 98%
- amount of TNF-α in the supernatant, Okadaic acid alone = 100% ([2]; compound 1 nM): 101%
- amount of TNF-α in the supernatant, Okadaic acid alone = 100% ([2]; compound 10 nM): 95%
- amount of TNF-α in the supernatant, Okadaic acid alone = 100% ([2]; compound 100 nM): 59%
- amount of TNF-α in the supernatant, Okadaic acid alone = 100% ([2]; compound 0.3 μM): 10%
- Amount of hemoglobin, value in parentheses (Control = 100) ([3]; 1 mg/kg): 93
- Amount of hemoglobin ([3]; 1 mg/kg, experiment (b), Control 83.3 (Table 15)): 77.2 μg/gel
- Amount of hemoglobin, value in parentheses (Control = 100) ([3]; 5 mg/kg): 49
- Amount of hemoglobin [3, 4]: 41.1 μg/gel

The next lines start with results.

- melting point: 175 to 177 °C
Compound: CSc1ccccc1N1C(=O)c2ccc(C)cc2C1=O [Compound 195]

- melting point: 117 to 118 °C
Compound: CCCCCCOc1ccc2c(c1)C(=O)N(c1c(C(C)C)cccc1C(C)C)C2=O [Compound 193]

- melting point: 130.9 to 132 °C
Compound: CC(C)c1cccc(C(C)C)c1N1Cc2ccccc2C1 [Compound 144, N-(2,6-diisopropylphenyl)isoindoline]
- amount of TNF-α, TPA alone = 100% ([1]; compound 100 μM): 319%

- melting point: 234 to 234.8 °C
Compound: CC(C)c1cccc(C(C)C)c1N1C(=O)c2ccc(C(C)(C)C)cc2C1=O [Compound 173, N-(2,6-diisopropylphenyl)-5-tert-butyl phthalimide]
- amount of TNF-α, TPA alone = 100% ([1]; compound 10 μM): 251%

- melting point: 162.9 to 163.2 °C
Compound: Cc1ccc2c(c1)C(=O)N(c1c(C(C)C)cccc1C(C)C)C2=O [Compound 171]
- amount of TNF-α, TPA alone = 100% ([1]; compound 10 μM): 421%
